Assay results reported in patent US4482553A, “Benzothienylglycyl cephalosporin derivatives” (priority 1983, dated 1984).
Where two headings read alike, the source gives them in different places.

Key:
Type in all cases: cell-based
Staph. epi [1] = assay: Expanded Spectrum MIC (Table II), Staph. epi
Excerpt: (§1) The antibacterial activity of several compounds of the invention has been determined in standard in vitro agar dilution assays against a variety of gram positive and gram negative microorganisms. The following Tables present typical minimum inhibitory concentrations (MIC's) in μg/ml for several compounds of the invention when evaluated against the indicated microorganisms. MIC's for several known compounds are also presented for comparison.

H. influ. [2] = assay: standard in vitro agar dilution MIC (Table I), H. influ.
Excerpt: as §1

Strep. D = assay: standard in vitro agar dilution MIC (Table I), Strep. D
Klebsiella = assay: standard in vitro agar dilution MIC (Table I), Klebsiella
Strep. PN = assay: standard in vitro agar dilution MIC (Table I), Strep. PN; settings: strain PARK, read-out: MIC
Staph. aureus [3] = assay: Expanded Spectrum MIC (Table II), Staph. aureus; settings: Staphylococcus aureus
Excerpt: as §1

E. coli = assay: standard in vitro agar dilution MIC (Table I), E. coli; settings: Escherichia coli
Staph. epi [4] = assay: standard in vitro agar dilution MIC (Table I), Staph. epi; settings: Table I, agar dilution, read-out: MIC
Strep. A = assay: standard in vitro agar dilution MIC (Table I), Strep. A; settings: Table I, agar dilution, strain C203; read-out: MIC
Staph. aureus [5] = assay: standard in vitro agar dilution MIC (Table I), Staph. aureus; settings: Staphylococcus aureus
H. influ. [6] = assay: Expanded Spectrum MIC (Table II), H. influ.
Excerpt: as §1

[7] = Klebsiella, Table I, agar dilution, strain X26, read-out: MIC

Measured: MIC

COc1c([C@@H](N)C(=O)NC2C(=O)N3C(C(=O)O)=C(C)CSC23)sc2ccccc12 (stereo partly drawn) [Ex. 9A, D-7-(3-methoxy-2-benzothienylglycylamido)-3-methyl-3-cephem-4-carboxylic acid]
0.25 µg/mL: Staph. epi [1]; strain 219, read-out: MIC | Staph. epi [1]; strain 286, read-out: MIC | Staph. aureus [3]; strain S224, read-out: MIC | Staph. aureus [3]; strain S225, read-out: MIC | Staph. aureus [3]; strain S227, read-out: MIC | Staph. aureus [3]; strain S228, read-out: MIC | Staph. aureus [3]; strain S230, read-out: MIC | Staph. aureus [3]; strain S231, read-out: MIC
> 128 µg/mL: Strep. D; strain X66 | Klebsiella; Klebsiella | Klebsiella; Table I, agar dilution, strain X68 | E. coli; strain N10 | E. coli; strain TEM | Staph. aureus [5]; strain X400, read-out: MIC
32 µg/mL: H. influ. [2]; strain 76, read-out: MIC | Klebsiella; [7] | Staph. epi [4]; strain EPI1
64 µg/mL: H. influ. [2]; strain C.L., read-out: MIC | Staph. aureus [5]; strain S13E | Staph. aureus [5]; strain V41, read-out: MIC
1 µg/mL: Staph. epi [1]; strain 269, read-out: MIC | Staph. epi [1]; strain 270, read-out: MIC | Staph. aureus [3]; strain S238, read-out: MIC | Strep. A
4 µg/mL: Staph. epi [1]; strain EPI1, read-out: MIC | Strep. PN | Staph. aureus [5]; strain X1.1, read-out: MIC
128 µg/mL: Strep. D; strain 2041 | E. coli; strain EC14
0.5 µg/mL: Staph. epi [1]; strain 285, read-out: MIC | Staph. aureus [3]; strain 239, read-out: MIC | Staph. aureus [3]; strain S226, read-out: MIC | Staph. aureus [3]; strain S229, read-out: MIC | Staph. aureus [3]; strain S234, read-out: MIC | Staph. aureus [3]; strain S237, read-out: MIC
8 µg/mL: Staph. epi [4]; strain 222

CC1=C(C(=O)O)N2C(=O)C(NC(=O)[C@H](N)c3cc4c(Cl)cccc4s3)C2SC1 (stereo partly drawn) [Ex. 7A, D-7-(4-chloro-2-benzothienylglycylamido)-3-methyl-3-cephem-4-carboxylic acid]
8 µg/mL: H. influ. [6]; strain 158, read-out: MIC | H. influ. [6]; strain 169, read-out: MIC | H. influ. [6]; strain 4842, read-out: MIC | Klebsiella; [7]
1 µg/mL: Staph. epi [1]; strain 269, read-out: MIC | Staph. epi [1]; strain 285, read-out: MIC | Staph. epi [4]; strain 222
> 128 µg/mL: Klebsiella; Klebsiella, Table I, agar dilution, strain KAE, read-out: MIC | Klebsiella; Klebsiella, Table I, agar dilution, strain X68, read-out: MIC | E. coli; strain EC14 | E. coli; strain N10 | E. coli; strain TEM
32 µg/mL: H. influ. [6]; strain C.L., read-out: MIC | H. influ. [6]; strain HESS, read-out: MIC | H. influ. [6]; strain M366, read-out: MIC | H. influ. [6]; strain STEL, read-out: MIC | Strep. D; strain 2041, read-out: MIC | Strep. D; strain X66, read-out: MIC | Staph. aureus [5]; strain X400, read-out: MIC
2 µg/mL: Staph. epi [1]; strain 270, read-out: MIC | Staph. epi [4]; strain EPI1 | Staph. aureus [5]; strain V41, read-out: MIC
16 µg/mL: H. influ. [6]; strain 76, read-out: MIC | H. influ. [6]; strain 312, read-out: MIC | H. influ. [6]; strain 1930, read-out: MIC | H. influ. [6]; strain R465, read-out: MIC
4 µg/mL: H. influ. [6]; strain 1683, read-out: MIC | Staph. epi [1]; strain EPI1, read-out: MIC | H. influ. [2]; strain 76, read-out: MIC
0.25 µg/mL: Staph. epi [1]; strain 286, read-out: MIC | Staph. aureus [3]; strain S231, read-out: MIC | Strep. A
0.5 µg/mL: Staph. epi [1]; strain 219, read-out: MIC | Strep. PN | Staph. aureus [3]; strain 239, read-out: MIC | Staph. aureus [3]; strain S224, read-out: MIC | Staph. aureus [3]; strain S225, read-out: MIC | Staph. aureus [3]; strain S226, read-out: MIC | Staph. aureus [3]; strain S227, read-out: MIC | Staph. aureus [3]; strain S228, read-out: MIC | Staph. aureus [3]; strain S229, read-out: MIC | Staph. aureus [3]; strain S230, read-out: MIC | Staph. aureus [3]; strain S234, read-out: MIC | Staph. aureus [3]; strain S237, read-out: MIC | Staph. aureus [3]; strain S238, read-out: MIC | Staph. aureus [5]; strain X1.1, read-out: MIC
